Target: Serotonin 2 (5-HT2) receptor (Rattus norvegicus, UniProt P30994+P08909+P14842)
Assay: In vitro binding affinity towards 5-hydroxytryptamine 2 receptor in rat striatal membranes by [3H]ketanserin displacement.
Type: cell membranes, Striatum, Membrane

Compound	Ki [nM]
O=C(CCCCN1C2CCC1c1c([nH]c3ccc(F)cc13)C2)c1ccc(F)cc1 (racemic)	2.98
O=C(CCCCN1C2CCC1c1c([nH]c3ccc(F)cc13)C2)c1ccc(F)cc1 (stereo in doubt; (S,R)-9)	1.87
O=C(CCCN1C2CCC1c1c([nH]c3ccc(F)cc13)C2)c1ccc(F)cc1 (mixture of isomers)	2.56
O=C(CCCN1C2CCC1c1c([nH]c3ccc(F)cc13)C2)c1ccc(F)cc1 (racemic)	1.96
O=C(CCCCN1C2CCC1c1c([nH]c3ccc(F)cc13)C2)c1ccc(F)cc1 (mixture of isomers)	109
O=C(CCCN1C2CCC1c1c([nH]c3ccc(F)cc13)C2)c1ccc(F)cc1 (stereo in doubt; (S,R) 8)	0.8
